{"source": "patent US12697330B2", "about": "“Therapeutic methods using vadadustat” (Akebia Therapeutics, Inc., priority 2021, dated 2026)", "assay_type_in_all_cases": "in vivo, human", "key": {"[1]": {"test_system": "Hb", "assay": "Phase 1b study: pharmacodynamics, Hb, reticulocytes, iron indices, hepcidin", "conditions": "10-day Treatment period", "excerpt": "PD Sampling. For all vadadustat and ESA treatment groups, in addition to EPO, blood samples for Hb, reticulocytes and iron indices for PD analyses were collected on Day 1, Day 6 and Day 10. Hepcidin were collected predose on Day 1, Day 6, and Day 10 for PD analysis.\nSecondary Endpoints. For each treatment group, PD parameters included, but were not limited to, as deemed appropriate: hepcidin, erythropoietin (EPO), iron indices (iron, ferritin, total iron-binding capacity [TIBC], TSAT), Hb, and reticulocytes."}, "[2]": {"assay": "Phase 1b study: safety and tolerability", "excerpt": "All subjects were followed for safety for 30 days after the Day 10 visitor 30 days after their last dose of study drug (vadadustat or ESA) if they discontinued study drug treatment early. Subjects returned to the clinic for safety assessments 2-5 days after completing Day 10/EOT and concluded the study with a follow-up telephone call to assess for AEs and concomitant medications 30 days after their last dose of study drug.\nSafety Endpoints. Safety could be evaluated by: adverse events (AE), electrocardiogram (ECG), vital signs measurements, and clinical laboratory values.\nSafety Population was defined as all subjects who received at least one dose of study drug. This population was analyzed based upon the actual treatment received."}, "[3]": {"test_system": "erythropoietin (EPO)", "assay": "Phase 2 study, Main Study: pharmacodynamics, Baseline-Adjusted serum EPO concentration", "procedure": "PK/PD Endpoints. An exposure-response analysis of vadadustat and PD measures were conducted as deemed appropriate. The PK parameters included (but were not limited to) the following: area under concentration-time curve from dosing to last measurable concentration (AUClast), area under concentration-time curve from dosing to infinity (AUCinf), Cmax, apparent total body clearance (CL/F), apparent volume of distribution (Vd/F), and terminal half-life (t1/2). The PD parameters included (but were not limited to) the following: EPO, reticulocytes, iron, ferritin, TIBC, and hepcidin.\nPK population: included all randomized subjects who received study drug (vadadustat or epoetin alfa) and had enough drug concentrations to estimate AUC and Cmax. Analysis of this population was based on the dose amount taken at the date of PK sampling for the vadadustat group.\nPD parameters for serum EPO concentration are presented by epoetin alfa stratification for vadadustat treatment groups in Table 7, Table 8a and Table 8b (baseline-unadjusted) and Table 9, Table 10a and Table 10b (baseline-adjusted)."}, "[4]": {"conditions": "Vada 150 mg, Week 11, High Epoetin Alfa Stratum >90 to <300 U/kg/week"}, "[5]": {"conditions": "Vada 150 mg, Week 11, Low Epoetin Alfa Stratum ≤90 U/kg/week"}, "[6]": {"conditions": "Vada 300 mg, Week 1 + 1, High Epoetin Alfa Stratum >90 to <300 U/kg/week"}, "[7]": {"conditions": "Vada 300 mg, Week 1 + 1, Low Epoetin Alfa Stratum ≤90 U/kg/week"}, "[8]": {"conditions": "Vada 300 mg, Week 1, High Epoetin Alfa Stratum >90 to <300 U/kg/week"}, "[9]": {"conditions": "Vada 300 mg, Week 1, Low Epoetin Alfa Stratum ≤90 U/kg/week"}, "[10]": {"conditions": "Vada 300 mg, Week 11, High Epoetin Alfa Stratum >90 to <300 U/kg/week"}, "[11]": {"conditions": "Vada 300 mg, Week 11, Low Epoetin Alfa Stratum ≤90 U/kg/week"}, "[12]": {"conditions": "Vada 450 mg, Week 1 + 1, High Epoetin Alfa Stratum >90 to <300 U/kg/week"}, "[13]": {"conditions": "Vada 450 mg, Week 1 + 1, Low Epoetin Alfa Stratum ≤90 U/kg/week"}, "[14]": {"conditions": "Vada 450 mg, Week 1, High Epoetin Alfa Stratum >90 to <300 U/kg/week"}, "[15]": {"conditions": "Vada 450 mg, Week 1, Low Epoetin Alfa Stratum ≤90 U/kg/week"}, "[16]": {"conditions": "Vada 450 mg, Week 11, High Epoetin Alfa Stratum >90 to <300 U/kg/week"}, "[17]": {"conditions": "Vada 450 mg, Week 11, Low Epoetin Alfa Stratum ≤90 U/kg/week"}, "[18]": {"conditions": "Vada 450 mg, Week 13, Low Epoetin Alfa Stratum ≤90 U/kg/week"}, "[19]": {"conditions": "Vada 600 mg, Week 1 + 1, High Epoetin Alfa Stratum >90 to <300 U/kg/week"}, "[20]": {"conditions": "Vada 600 mg, Week 1, High Epoetin Alfa Stratum >90 to <300 U/kg/week"}, "[21]": {"conditions": "Vada 600 mg, Week 11, High Epoetin Alfa Stratum >90 to <300 U/kg/week"}, "[22]": {"conditions": "Vada 600 mg, Week 11, Low Epoetin Alfa Stratum ≤90 U/kg/week"}, "[23]": {"conditions": "Vada 600 mg, Week 13, High Epoetin Alfa Stratum >90 to <300 U/kg/week"}, "[24]": {"conditions": "Vada 600 mg, Week 13, Low Epoetin Alfa Stratum ≤90 U/kg/week"}, "[25]": {"conditions": "Vada 750 mg, Week 11, High Epoetin Alfa Stratum >90 to <300 U/kg/week"}, "[26]": {"conditions": "Vada 750 mg, Week 11, Low Epoetin Alfa Stratum ≤90 U/kg/week"}, "[27]": {"conditions": "Vada 750 mg, Week 13, High Epoetin Alfa Stratum >90 to <300 U/kg/week"}, "[28]": {"conditions": "Vada 750 mg, Week 13, Low Epoetin Alfa Stratum ≤90 U/kg/week"}, "[29]": {"conditions": "Vada 900 mg, Week 11, High Epoetin Alfa Stratum >90 to <300 U/kg/week"}, "[30]": {"conditions": "Vada 900 mg, Week 11, Low Epoetin Alfa Stratum ≤90 U/kg/week"}}}
{"smiles": "O=C(O)CNC(=O)c1ncc(-c2cccc(Cl)c2)cc1O", "note": "[vadadustat, {[5-(3-chlorophenyl)-3-hydroxypyridine-2-carbonyl]amino}acetic acid]", "values": [{"measurement": "mean Hb levels versus dose", "setting": "[1]", "result": "not a dose-dependent increase"}, {"measurement": "incidence of drug-related Treatment Emergent Adverse Events (TEAEs)", "setting": "[2]; 3 vadadustat treatment arms", "result": "infrequent and similar across all 3 treatment arms"}, {"measurement": "safety concerns", "setting": "[2]; 600, 750, 900 mg QD, 10 days", "result": "No major safety concerns were observed"}, {"measurement": "tolerability", "setting": "[2]; oral administration, 600, 750, 900 mg QD, 10 days", "result": "generally well tolerated"}]}
{"smiles": "O=C(O)CNC(=O)c1ncc(-c2cccc(Cl)c2)cc1O", "note": "[Compound 1, {[5-(3-chlorophenyl)-3-hydroxypyridine-2-carbonyl]amino}acetic acid]", "values": [{"measurement": "Baseline-Adjusted Serum EPO Cmax, Geometric Mean", "setting": "[3]; [4]", "result": 4.29, "unit": "µg/mL"}, {"measurement": "Baseline-Adjusted Serum EPO Tmax, Median", "setting": "[3]; [4]", "result": 0, "unit": "h"}, {"measurement": "Baseline-Adjusted Serum EPO Cmax, Geometric Mean", "setting": "[3]; [5]", "result": 4.32, "unit": "µg/mL"}, {"measurement": "Baseline-Adjusted Serum EPO Tmax, Median", "setting": "[3]; [5]", "result": 4.78, "unit": "h"}, {"measurement": "Baseline-Adjusted Serum EPO Cmax, Geometric Mean", "setting": "[3]; [6]", "result": 7.2, "unit": "µg/mL"}, {"measurement": "Baseline-Adjusted Serum EPO Tmax, Median", "setting": "[3]; [6]", "result": 0, "unit": "h"}, {"measurement": "Baseline-Adjusted Serum EPO Cmax, Geometric Mean", "setting": "[3]; [7]", "result": 10.1, "unit": "µg/mL"}, {"measurement": "Baseline-Adjusted Serum EPO Tmax, Median", "setting": "[3]; [7]", "result": 2.00, "unit": "h"}, {"measurement": "Baseline-Adjusted Serum EPO Cmax, Geometric Mean", "setting": "[3]; [8]", "result": 9.1, "unit": "µg/mL"}, {"measurement": "Baseline-Adjusted Serum EPO Tmax, Median", "setting": "[3]; [8]", "result": 0, "unit": "h"}, {"measurement": "Baseline-Adjusted Serum EPO Cmax, Geometric Mean", "setting": "[3]; [9]", "result": 9.1, "unit": "µg/mL"}, {"measurement": "Baseline-Adjusted Serum EPO Tmax, Median", "setting": "[3]; [9]", "result": 4.50, "unit": "h"}, {"measurement": "Baseline-Adjusted Serum EPO Cmax, Geometric Mean", "setting": "[3]; [10]", "result": 33.8, "unit": "µg/mL"}, {"measurement": "Baseline-Adjusted Serum EPO Tmax, Median", "setting": "[3]; [10]", "result": 0, "unit": "h"}, {"measurement": "Baseline-Adjusted Serum EPO Cmax, Geometric Mean", "setting": "[3]; [11]", "result": 14.5, "unit": "µg/mL"}, {"measurement": "Baseline-Adjusted Serum EPO Tmax, Median", "setting": "[3]; [11]", "result": 1.00, "unit": "h"}, {"measurement": "Baseline-Adjusted Serum EPO Cmax, Geometric Mean", "setting": "[3]; [12]", "result": 10.0, "unit": "µg/mL"}, {"measurement": "Baseline-Adjusted Serum EPO Tmax, Median", "setting": "[3]; [12]", "result": 0, "unit": "h"}, {"measurement": "Baseline-Adjusted Serum EPO Cmax, Geometric Mean", "setting": "[3]; [13]", "result": 11.8, "unit": "µg/mL"}, {"measurement": "Baseline-Adjusted Serum EPO Tmax, Median", "setting": "[3]; [13]", "result": 4.50, "unit": "h"}, {"measurement": "Baseline-Adjusted Serum EPO Cmax, Geometric Mean", "setting": "[3]; [14]", "result": 14.0, "unit": "µg/mL"}, {"measurement": "Baseline-Adjusted Serum EPO Tmax, Median", "setting": "[3]; [14]", "result": 4.50, "unit": "h"}, {"measurement": "Baseline-Adjusted Serum EPO Cmax, Geometric Mean", "setting": "[3]; [15]", "result": 18.1, "unit": "µg/mL"}, {"measurement": "Baseline-Adjusted Serum EPO Tmax, Median", "setting": "[3]; [15]", "result": 1.75, "unit": "h"}, {"measurement": "Baseline-Adjusted Serum EPO Cmax, Geometric Mean", "setting": "[3]; [16]", "result": 15.5, "unit": "µg/mL"}, {"measurement": "Baseline-Adjusted Serum EPO Tmax, Median", "setting": "[3]; [16]", "result": 0.88, "unit": "h"}, {"measurement": "Baseline-Adjusted Serum EPO Cmax, Geometric Mean", "setting": "[3]; [17]", "result": 8.00, "unit": "µg/mL"}, {"measurement": "Baseline-Adjusted Serum EPO Tmax, Median", "setting": "[3]; [17]", "result": 2.08, "unit": "h"}, {"measurement": "Baseline-Adjusted Serum EPO Cmax, Geometric Mean", "setting": "[3]; [18]", "result": 11.4, "unit": "µg/mL"}, {"measurement": "Baseline-Adjusted Serum EPO Tmax, Median", "setting": "[3]; [18]", "result": 3.94, "unit": "h"}, {"measurement": "Baseline-Adjusted Serum EPO Cmax, Geometric Mean", "setting": "[3]; [19]", "result": 18.9, "unit": "µg/mL"}, {"measurement": "Baseline-Adjusted Serum EPO Tmax, Median", "setting": "[3]; [19]", "result": 2.47, "unit": "h"}, {"measurement": "Baseline-Adjusted Serum EPO Cmax, Geometric Mean", "setting": "[3]; [20]", "result": 26.0, "unit": "µg/mL"}, {"measurement": "Baseline-Adjusted Serum EPO Tmax, Median", "setting": "[3]; [20]", "result": 0, "unit": "h"}, {"measurement": "Baseline-Adjusted Serum EPO Cmax, Geometric Mean", "setting": "[3]; [21]", "result": 14.6, "unit": "µg/mL"}, {"measurement": "Baseline-Adjusted Serum EPO Tmax, Median", "setting": "[3]; [21]", "result": 0.92, "unit": "h"}, {"measurement": "Baseline-Adjusted Serum EPO Cmax, Geometric Mean", "setting": "[3]; [22]", "result": 13.7, "unit": "µg/mL"}, {"measurement": "Baseline-Adjusted Serum EPO Tmax, Median", "setting": "[3]; [22]", "result": 4.00, "unit": "h"}, {"measurement": "Baseline-Adjusted Serum EPO Cmax, Geometric Mean", "setting": "[3]; [23]", "result": 173.0, "unit": "µg/mL"}, {"measurement": "Baseline-Adjusted Serum EPO Tmax, Median", "setting": "[3]; [23]", "result": 4.63, "unit": "h"}, {"measurement": "Baseline-Adjusted Serum EPO Cmax, Geometric Mean", "setting": "[3]; [24]", "result": 8.1, "unit": "µg/mL"}, {"measurement": "Baseline-Adjusted Serum EPO Tmax, Median", "setting": "[3]; [24]", "result": 7.08, "unit": "h"}, {"measurement": "Baseline-Adjusted Serum EPO Cmax, Geometric Mean", "setting": "[3]; [25]", "result": 14.8, "unit": "µg/mL"}, {"measurement": "Baseline-Adjusted Serum EPO Tmax, Median", "setting": "[3]; [25]", "result": 4.75, "unit": "h"}, {"measurement": "Baseline-Adjusted Serum EPO Cmax, Geometric Mean", "setting": "[3]; [26]", "result": 3.91, "unit": "µg/mL"}, {"measurement": "Baseline-Adjusted Serum EPO Tmax, Median", "setting": "[3]; [26]", "result": 4.50, "unit": "h"}, {"measurement": "Baseline-Adjusted Serum EPO Cmax, Geometric Mean", "setting": "[3]; [27]", "result": 6.8, "unit": "µg/mL"}, {"measurement": "Baseline-Adjusted Serum EPO Tmax, Median", "setting": "[3]; [27]", "result": 0, "unit": "h"}, {"measurement": "Baseline-Adjusted Serum EPO Cmax, Geometric Mean", "setting": "[3]; [28]", "result": 7.7, "unit": "µg/mL"}, {"measurement": "Baseline-Adjusted Serum EPO Tmax, Median", "setting": "[3]; [28]", "result": 4.50, "unit": "h"}, {"measurement": "Baseline-Adjusted Serum EPO Cmax, Geometric Mean", "setting": "[3]; [29]", "result": 21.4, "unit": "µg/mL"}, {"measurement": "Baseline-Adjusted Serum EPO Tmax, Median", "setting": "[3]; [29]", "result": 0, "unit": "h"}, {"measurement": "Baseline-Adjusted Serum EPO Cmax, Geometric Mean", "setting": "[3]; [30]", "result": 10.8, "unit": "µg/mL"}, {"measurement": "Baseline-Adjusted Serum EPO Tmax, Median", "setting": "[3]; [30]", "result": 0, "unit": "h"}]}
